Like-named read-outs stand apart in the source and are kept apart here.
Experiments:
Human CB2 = Human CB2 (Homo sapiens, UniProt P34972); assay: cAMP inhibition assay (HitHunter cAMP XS+, Eurofins) in human CB2 cells; type: cell-based; conditions: for hCB2 cAMP (−) CP55,940 % Max: absence of CP55,940; for hCB2 cAMP (−) CP55,940 % Max / hCB2 cAMP (+) CP55,940 % Max: % of maximal CP55,940 response; for hCB2 cAMP (+) CP55,940 % Max: presence of EC20 CP55,940
Procedure: Assays were performed by Eurofins Discovery (Freemont, CA, USA). cAMP Hunter cell lines were expanded from freezer stocks according to standard procedures. Human CB2 cells were seeded in a total volume of 20 μL into white-walled, 384-well microplates and incubated at 37 °C for the appropriate time prior to testing. cAMP modulation was determined using the DiscoverX HitHunter cAMP XS+ assay. For agonist determination, cells were incubated with samples in the presence of EC80 forskolin to induce a response. Media was aspirated from cells and replaced with 10 μL HBSS/10 mM HEPES. Intermediate dilution of sample stocks was performed to generate 4× sample in assay buffer, and 5 μL of 4× sample was added to cells. Then, 5 μL of 4× EC80 forskolin diluted in HBSS/HEPES was added and incubated at 37 °C for 30 min. The final assay vehicle concentration was 1%. For allosteric determination, cells were pre-incubated with the sample followed by agonist induction at the EC20 concentration. Media was aspirated from cells and replaced with 10 μL HBSS/10 mM HEPES. Intermediate dilution of sample stocks was performed to generate 4× samples in assay buffer. Then, 5 μL of 4× compound was added to the cells and incubated at room temperature or 37 °C for 5 min. Subsequently, 5 μL of 4× EC20 agonist was added to the cells and incubated at 37 °C for 30 min. EC80 forskolin was included.
After appropriate compound incubation, the assay signal was generated by incubation with 5 μL cAMP XS+ Ab reagent, followed by 20 μL cAMP XS+ ED/CL lysis cocktail for one hour at room temperature. Then, 20 μL cAMP XS+ EA reagent was added and incubated for two hours at room temperature. Microplates were read following signal generation with a PerkinElmer Envision^TM instrument for chemiluminescent signal detection.
Compound activity was analyzed using the CBIS data analysis suite (ChemInnovation, San Diego, CA, USA). For agonist mode assays, percentage activity was calculated using the following formula: % Activity = 100% × (1 − (mean RLU of test sample − mean RLU of MAX control)/(mean RLU of vehicle control − mean RLU of MAX control)).
For Gi positive allosteric mode assays, percentage modulation was calculated using the following formula: % Modulation = 100% × (1 − (mean RLU of test sample − mean RLU of MAX control)/(mean RLU of EC20 control − mean RLU of MAX control)).

rat CB2 = molecular target: T1, rat CB2 (Rattus norvegicus, UniProt Q9QZN9); assay: β-arrestin recruitment assay (PathHunter, Eurofins) in rat CB2 cells; type: cell-based; parameters: expressed in transfected cells; conditions: for rCB2 β-Arrestin (−) CP55,940 % Max / rCB2 β-Arrestin (+) CP55,940 % Max: % of maximal CP55,940 response
T1 sequence (Q9QZN9 1-360): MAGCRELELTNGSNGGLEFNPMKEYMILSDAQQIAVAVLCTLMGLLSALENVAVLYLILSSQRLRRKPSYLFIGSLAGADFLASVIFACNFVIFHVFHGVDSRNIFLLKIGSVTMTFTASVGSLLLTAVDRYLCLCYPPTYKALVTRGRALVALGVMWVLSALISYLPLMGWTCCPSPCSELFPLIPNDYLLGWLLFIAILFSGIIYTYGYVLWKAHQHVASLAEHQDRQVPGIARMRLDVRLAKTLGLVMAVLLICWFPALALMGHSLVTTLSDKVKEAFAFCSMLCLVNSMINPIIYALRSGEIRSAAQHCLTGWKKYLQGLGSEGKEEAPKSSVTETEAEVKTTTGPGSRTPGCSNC
Procedure: Assays were performed by Eurofins Discovery (Freemont, CA, USA). PathHunter cell lines were expanded from freezer stocks according to standard procedures. Rat CB2 cells were seeded in a total volume of 20 μL into white-walled, 384-well microplates and incubated at 37 °C for the appropriate time prior to testing. For agonist determination, cells were incubated with the sample to induce a response. Intermediate dilution of sample stocks was performed to generate a 5× sample in assay buffer. A total of 5 μL of 5× sample was added to the cells and incubated at 37 °C or room temperature for at least 120 min. The final assay vehicle concentration was 1%. For allosteric modulator determination, cells were pre-incubated with the sample followed by agonist challenge at the EC20. Intermediate dilution of sample stocks was performed to generate a 5× sample in assay buffer. A total of 5 μL of 5× sample was added to cells and incubated at 37 °C or room temperature for 15 min. Vehicle concentration was 1%. Then, 5 μL of 6× EC20 agonist in assay buffer was added to the cells and incubated at 37 °C or room temperature for at least 120 min.
The assay signal was generated through a single addition of 15 μL (50% v/v) of PathHunter Detection reagent cocktail, followed by a one-hour incubation at room temperature. Microplates were read following signal generation with a PerkinElmer Envision^TM instrument for chemiluminescent signal detection.
Compound activity was analyzed using the CBIS data analysis suite (ChemInnovation). For agonist mode assays, percentage activity was calculated using the following formula: % Activity = 100% × (mean RLU of test sample − mean RLU of vehicle control)/(mean MAX control ligand − mean RLU of vehicle control).
For positive allosteric mode assays, percentage modulation was calculated using the following formula: % Modulation = 100% × ((mean RLU of test sample − mean RLU of EC20 control)/(mean RLU of MAX control ligand − mean RLU of EC20 control)).

[1] = hCB2 cAMP (+) CP55,940 pEC50, presence of EC20 CP55,940, EC80 forskolin
[2] = hCB2 cAMP (−) CP55,940 pEC50, absence of CP55,940, EC80 forskolin
[3] = rCB2 β-Arrestin (+) CP55,940 pEC50, presence of EC20 CP55,940
[4] = rCB2 β-Arrestin (−) CP55,940 pEC50, absence of CP55,940

Chain of Human CB2 (P34972 whole entry): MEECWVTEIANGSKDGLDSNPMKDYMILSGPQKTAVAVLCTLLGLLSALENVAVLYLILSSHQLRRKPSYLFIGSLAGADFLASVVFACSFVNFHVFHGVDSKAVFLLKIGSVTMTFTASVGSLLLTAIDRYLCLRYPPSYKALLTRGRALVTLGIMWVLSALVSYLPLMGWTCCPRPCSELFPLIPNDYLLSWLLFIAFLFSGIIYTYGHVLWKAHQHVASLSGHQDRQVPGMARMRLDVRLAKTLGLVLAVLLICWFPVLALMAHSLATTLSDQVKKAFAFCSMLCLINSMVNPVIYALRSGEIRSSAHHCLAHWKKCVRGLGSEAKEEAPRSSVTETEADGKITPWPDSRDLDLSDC

## O=C(NCC1CCOCC1)c1cnc(Nc2ccc(Cl)cc2Cl)nc1C(F)(F)F [GW-842,166X, 2-(2,4-dichloroanilino)-N-(oxan-4-ylmethyl)-4-(trifluoromethyl)pyrimidine-5-carboxamide]
Human CB2
  hCB2 cAMP (−) CP55,940 % Max: 120%
  hCB2 cAMP (+) CP55,940 % Max: 119%
Human CB2; [1]
  EC50: 5130 nM
Human CB2; [2]
  EC50: 2040 nM
Rat CB2; absence of CP55,940
  rCB2 β-Arrestin (−) CP55,940 % Max: 97%
Rat CB2; presence of EC20 CP55,940
  rCB2 β-Arrestin (+) CP55,940 % Max: 120%
Rat CB2; [3]
  EC50: 631 nM
Rat CB2; [4]
  EC50: 162 nM

## CC1(Cc2ccccc2)COc2cc(C(=O)N3CCCCC3)ccc21 (stereo not drawn) [MDA7, 1-[(3-benzyl-3-methyl-2,3-dihydro-1-benzofuran-6-yl)carbonyl]piperidine]
Human CB2
  hCB2 cAMP (−) CP55,940 % Max: 108%
  hCB2 cAMP (+) CP55,940 % Max: 111%
Human CB2; [1]
  EC50: > 10000 nM
Human CB2; [2]
  EC50: > 10000 nM
Rat CB2; absence of CP55,940
  rCB2 β-Arrestin (−) CP55,940 % Max: 38%
Rat CB2; presence of EC20 CP55,940
  rCB2 β-Arrestin (+) CP55,940 % Max: 40%
Rat CB2; [3]
  EC50: > 10000 nM
Rat CB2; [4]
  EC50: 47.9 nM

## COc1c(C)c2c(c(O)c1C/C=C(\C)CCC(=O)OCCN1CCOCC1)C(=O)OC2 [Mycophenolate mofetil]
Human CB2; absence of CP55,940, EC80 forskolin
  hCB2 cAMP (−) CP55,940 pEC50: < 5.0
Human CB2
  hCB2 cAMP (−) CP55,940 % Max: 46%
  hCB2 cAMP (+) CP55,940 % Max: 41%
Human CB2; presence of EC20 CP55,940, EC80 forskolin, read-out: hCB2 cAMP (+) CP55,940 pEC50 (converted)
  EC50: > 10000 nM
Rat CB2; absence of CP55,940
  rCB2 β-Arrestin (−) CP55,940 % Max: 114%
Rat CB2; absence of CP55,940, read-out: rCB2 β-Arrestin (−) CP55,940 pEC50 (converted)
  EC50: 1150 nM
Rat CB2; presence of EC20 CP55,940
  rCB2 β-Arrestin (+) CP55,940 % Max: 113%
Rat CB2; presence of EC20 CP55,940, read-out: rCB2 β-Arrestin (+) CP55,940 pEC50 (converted)
  EC50: 1350 nM

Source: article PMC12112332, “Characterization of Novel and Known Activators of Cannabinoid Receptor Subtype 2 Reveals Mixed Pharmacology That Differentiates Mycophenolate Mofetil and GW-842,166X from MDA7” (International Journal of Molecular Sciences, 2025)
